The values that follow are results of earlier work, collected in PMC3150604 (Journal of medicinal chemistry, 2011).

In the data set the target is σ1 receptor. The note with it: read-out: σ1 receptor Ki; literature value ref 46.

Consider `O[C@H]1CCCC[C@@H]1N1CCC(c2ccc(I)s2)CC1` [compound 5, (1S,2S)-2-(4-(5-iodothiophen-2-yl)piperidin-1-yl)cyclohexanol], for which the Ki (as a rule, a dissociation constant, usually derived from enzyme kinetics or from competition with a known ligand) was 9.39 nM.
